Assay [1] deals with T1, CjCel5B (Cellvibrio japonicus, UniProt B3PCS3).
T1 construct: gene cel5B; recombinant, produced in E. coli; native protein has N-terminal catalytic domain, serine-rich linker and C-terminal domain; borders of construct only in supplement
T1 sequence (B3PCS3 38-570): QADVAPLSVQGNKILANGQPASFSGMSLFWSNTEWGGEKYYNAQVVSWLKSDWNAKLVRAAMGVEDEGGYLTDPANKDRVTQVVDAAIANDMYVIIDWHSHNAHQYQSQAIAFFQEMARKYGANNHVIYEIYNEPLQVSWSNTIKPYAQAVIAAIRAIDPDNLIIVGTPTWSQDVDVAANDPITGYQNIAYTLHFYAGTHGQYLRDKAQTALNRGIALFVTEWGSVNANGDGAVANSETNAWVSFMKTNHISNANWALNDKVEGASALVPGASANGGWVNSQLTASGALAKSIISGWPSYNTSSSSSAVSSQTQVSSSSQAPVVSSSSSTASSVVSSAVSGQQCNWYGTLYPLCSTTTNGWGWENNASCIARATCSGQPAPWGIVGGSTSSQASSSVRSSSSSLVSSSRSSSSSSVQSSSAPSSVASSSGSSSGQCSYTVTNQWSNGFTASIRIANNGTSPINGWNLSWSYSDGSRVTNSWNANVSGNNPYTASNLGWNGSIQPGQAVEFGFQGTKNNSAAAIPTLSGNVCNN
The assay can be described thus: fluorogenic hydrolysis kinetics. It counts as biochemical. The settings on record: 4MU release.

Assay [2] has as its target T2, CjXyl39A; Xyl39A (Cellvibrio japonicus, UniProt B3PD50).
T2 construct: recombinant, produced in E. coli (native in the pull-down)
T2 sequence (B3PD50 24-521): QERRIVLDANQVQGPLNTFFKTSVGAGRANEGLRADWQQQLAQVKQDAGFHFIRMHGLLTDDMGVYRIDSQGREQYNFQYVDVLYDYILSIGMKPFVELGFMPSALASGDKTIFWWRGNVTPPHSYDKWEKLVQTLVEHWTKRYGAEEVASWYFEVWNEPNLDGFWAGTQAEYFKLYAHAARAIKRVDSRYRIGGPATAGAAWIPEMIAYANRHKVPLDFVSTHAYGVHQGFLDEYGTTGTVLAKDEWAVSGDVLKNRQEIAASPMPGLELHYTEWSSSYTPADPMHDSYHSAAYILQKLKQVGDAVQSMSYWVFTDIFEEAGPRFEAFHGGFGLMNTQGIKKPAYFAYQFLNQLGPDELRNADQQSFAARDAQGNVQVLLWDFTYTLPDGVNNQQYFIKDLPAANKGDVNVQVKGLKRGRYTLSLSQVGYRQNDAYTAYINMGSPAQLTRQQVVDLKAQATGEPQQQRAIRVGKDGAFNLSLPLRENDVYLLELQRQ
The assay can be described thus: fluorogenic activity assay on 4MU glycosides. It is filed as biochemical. Conditions: recombinant enzyme.

For the compound `Cc1cc(=O)oc2cc(O[C@@H]3O[C@H](CO)[C@@H](O[C@@H]4O[C@H](CO[C@H]5OC[C@@H](O)[C@H](O)[C@H]5O)[C@@H](O[C@@H]5O[C@H](CO[C@H]6OC[C@@H](O)[C@H](O)[C@H]6O)[C@@H](O[C@@H]6O[C@H](CO[C@H]7OC[C@@H](O)[C@H](O)[C@H]7O)[C@@H](O)[C@H](O)[C@H]6O)[C@H](O)[C@H]5O)[C@H](O)[C@H]4O)[C@H](O)[C@H]3O)ccc12` [4MU-XXXG], the hydrolysis kinetics result in assay [1] was “Kinetics for the hydrolysis of 4MU-XXXG and commercially available 4MU-cellotetraose were measured”.

As for `Cc1cc(=O)oc2cc(O[C@@H]3OC[C@@H](O)[C@H](O)[C@H]3O)ccc12` [4-methylumbelliferyl (4MU) glycoside of β-D-xylose], the activity entry in assay [2] was “showed specific recognition of β-D-xylose over other glycosides”.

The values are drawn from PMC10755729, “A Multiplexing Activity-Based Protein-Profiling Platform for Dissection of a Native Bacterial Xyloglucan-Degrading System” (ACS Central Science, 2023).
